From EP0211183A2, “Use of ubidecarenone(ubiquinone-10) as an antichromatotic agent” (Eisai Co., Ltd., priority 1985, dated 1987)
Where two headings read alike, the source gives them in different places.

Key:
[1] = Acute toxicity, various dosage pathways, 7-day lethality, LD50 by Litchfield-Wilcoxon; type: in vivo, ICR-JCL mice; conditions: in vivo, read-out: LD50 value (95% confidence limit)
Method: (§1) The acute toxicity of the present substance was investigated in various dosage pathways by the use of Wister rats and ICR-JCL mice. For the peroral or endermic dosage, the present substance was dissolved in a distilled water and the resulting solution was used. For the other dosages, the present substance was dissolved in a physiological salt solution and the resulting solution was dosed with a stomach conductor or an injector. In each dosage, a determined amount of the substance was regulated and properly dosed.
(§2) After the dosage, the expression of toxicopathy was continuously observed, and the lethality with the lapse of time for 7 days was measured and the value of LDSO was obtained therefrom. Both the tested animals as living and the tested animals as died were dissected for observation. LD50 was calculated on the basis of Litchfield-Wilcoxon figure-calculation method.

[2] = system: Wister rats; test: as above; type: in vivo; conditions: rats
Method: as §1, §2

[3] = system: ICR-JCL mice; test: as above; type: in vivo; conditions: mice
Method: as §1, §2

[4] = system: guinea pigs; test: Sensitization, maximization test by Magnusson and Kligman; type: in vivo; conditions: challenge on day 21, sealed 24 hours
Method: This was tested in accordance with a maximization test by Magnusson B. and Kligman, A.M. The test is as follows:
Twenty guinea pigs were prepared for the test, ten being for the induction and the other ten being for the control in the challenge. The suprascapular part of the guinea pig was clipped and shaved in the area of 4cm x 6cm, and the following three pairs of hypodermic injections (a), (b) and (c) were imparted simultaneously to both the right and left parts as being symmetrical about the median line. • (a) Each 0.05ml of FCA to two points in both the right and left parts, totalling O.lml in all. • (b) Each 0.05ml of the test substance to two points in both the right and left parts, in the form of an aqueous solution (content of test substance: 10X). • (c) Each 0.05ml of FCA as containing the test substance emulsion to two points in both the right and left parts.
After one week from the hypodermic injection, the suprascapular part was again clipped and vaseline containing 10X of sodium laurylsulfate was applied thereover thereby to cause a slight inflammation on the applied part. By this treatment, the sensitization was intensified. Next, the test substance was applied to this part, which was thereafter airtightly sealed. […]

[5] = at the dosages of Table-1, 7 days

COC1=C(OC)C(=O)C(CC=C(C)CCC=C(C)CCC=C(C)CCC=C(C)CCC=C(C)CCC=C(C)CCC=C(C)CCC=C(C)CCC=C(C)CCC=C(C)C)=C(C)C1=O [ubiquinone-10]
LD50 at 168 h ([1]; mouse, im, mice (male, female), Intramuscular): 500 mg/kg
LD50 at 168 h ([1]; mouse, ip, mice (male, female), Intra-abdominal): 1500 mg/kg
LD50 at 168 h ([1]; mouse, po, mice (male, female), Peroral): 4000 mg/kg
LD50 at 168 h ([1]; mouse, sc, mice (male, female), Hypodermic): 500 mg/kg
LD50 at 168 h ([1]; mouse, mice (male, female), Endermic): 4000 mg/kg
LD50 at 168 h ([1]; mouse, mice (male, female), Intravenous): 250 mg/kg
LD50 at 168 h ([1]; rat, im, rats (male, female), Intramuscular): 500 mg/kg
LD50 at 168 h ([1]; rat, ip, rats (male, female), Intra-abdominal): 1500 mg/kg
LD50 at 168 h ([1]; rat, po, rats (male, female), Peroral): 4000 mg/kg
LD50 at 168 h ([1]; rat, sc, rats (male, female), Hypodermic): 500 mg/kg
LD50 at 168 h ([1]; rat, rats (male, female), Endermic): 4000 mg/kg
LD50 at 168 h ([1]; rat, rats (male, female), Intravenous): 250 mg/kg
general condition, weight, amount of feed intake, observation in dissection ([2]; at the dosages of Table-1): no abnormal change was found
lethality [2, 5]: no animals as tested died
general condition, weight, amount of feed intake, observation in dissection ([3]; at the dosages of Table-1): no abnormal change was found
lethality [3, 5]: no animals as tested died
sensitization reaction [4]: No sensitization reaction
